Source: patent US20230286973A1, “PROTEIN SECRETION INHIBITORS” (KEZAR LIFE SCIENCES, priority 2020, published 2023)
Values joined by “and” are separate entries in the source; they are usually repeats but may differ in a detail not shown here. Equal entries are not always repeated. Where two headings read alike, the source gives them in different places.

What was measured:
[1] = Liver Microsome Stability Assay (mouse); settings: mouse liver microsomes, with NADPH, 1.0 uM compound
Method: (§1) Stability of a compound was assessed in the presence of liver microsomes from various sources—mouse, rat, monkey and human liver microsomes. 1.0 uM compound, 0.4% DMSO in 0.1 M Potassium Phosphate with 1.0 mg/mL liver microsomes, were incubated at 37° C. with or without 1 mM NADPH. The samples were quenched at 0, and 30 minutes.

[2] = Liver Microsome Stability Assay (human); settings: human liver microsomes, with NADPH, 1.0 uM compound
Method: as §1

[3] = test system: multiple myeloma cell line NCI-H929; assay: H929 Cell Viability Assay; type: cell-based, human; settings: NCI-H929 cells, Celltiter-Glo
Outline: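 Viability is scored by CellTiter-Glo luminescence following a 48-hour treatment at 37° C. Data for structures shown without stereochemistry refer to stereoisomer mixtures.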

[4] = Liver Microsome Stability Assay (rat); settings: rat liver microsomes, with NADPH, 1.0 uM compound
Method: as §1

[5] = test system: multiple myeloma cell line U266B1; assay: U266 Cell Viability Assay; type: cell-based, human; settings: U266B1 cells, Celltiter-Glo
Outline: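 Viability is measured as luciferase signal from CellTiter-Glo following a 48-hour incubation with compound at 37° C. under 5% CO2. Where structures lack drawn stereochemistry, values refer to stereoisomer mixtures.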

[6] = test system: HER3-ss+4aa/Gaussia Luciferase; assay: Dox-Induced Her3-ss-Gluc Assay; type: cell-based; settings: 24 hr Dox induction, 293FRT/TO cells, read-out: 24 hr Dox Inducible Her3(ss + 4)Gluc 293FRT/TO: Mean IC50
Outline: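 Reporter line: Flp-In 293 T-REx, T-REx-regulated HER3-ss+4aa fused to Gaussia luciferase. Compound co-added with doxycycline after overnight plating, 37° C., 5% CO2.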

[7] = Liver Microsome Stability Assay (monkey); settings: monkey liver microsomes, with NADPH, 1.0 uM compound
Method: as §1

[8] = test system: PD1-ss+10aa/Gaussia Luciferase; assay: Dox-Induced PD1-ss-Gluc Assay; type: cell-based; settings: 24 hr Dox induction, 293FRT/TO cells, read-out: 24 hr Dox Inducible PD1ssGluc 293FRT/TO: Mean IC50
Outline: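 Compounds were added in DMSO/media with doxycycline and incubated at 37 °C, 5% CO2, on 293 T-REx cells plated one day earlier. These cells stably express, under tetracycline-regulated control, a Gaussia luciferase fused to the PD1 signal peptide plus 10 residues. Structures drawn without stereochemistry were tested as stereoisomer mixtures.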

[9] = test system: TNFα-FL/Gaussia Luciferase; assay: Dox Induced TNFα-FL-Gluc Assay; type: cell-based; settings: for IC50: 24 hr Dox induction, 293FRT/TO cells, read-out: 24 hr Dox Inducible TNFaFLGluc 293FRT/TO: Mean IC50; for 24 hr Dox Inducible TNFaFLGluc 293FRT/TO: TNF/PD1: ratio of TNFaFLGluc IC50 to PD1ssGluc IC50
Outline: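 Doxycycline-inducible Gaussia luciferase-tagged full-length TNFα (1-233) was expressed in stable Flp-In 293 T-REx cells. Compounds were co-added with doxycycline and incubated at 37 °C, 5% CO2.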

[10] = test system: IL-2-FL/Gaussia Luciferase; assay: Dox Induced IL2-FL-Gluc Assay; type: cell-based; settings: for IC50: 24 hr Dox induction, 293FRT/TO cells, read-out: 24 hr Dox Inducible IL2FLGluc 293FRT/TO: Mean IC50; for 24 hr Dox Inducible IL2FLGluc 293FRT/TO: IL2/PD1: ratio of IL2FLGluc IC50 to PD1ssGluc IC50
Outline: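 Doxycycline induces an IL-2(1-153)–Gaussia luciferase fusion in a stable Flp-In 293 T-REx line. Compound exposure runs alongside induction at 37° C.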

[11] = '<=>' given where both are I.A.

| Structure (SMILES) | Liver Microsome Stability (Multiple Species): Mouse - % Remaining after 30 min w/NADPH [1] | Liver Microsome Stability (Multiple Species): Human - % Remaining after 30 min w/NADPH [2] | EC50 ([3]; Homo sapiens, NCI-H929, 48 h) | Liver Microsome Stability (Multiple Species): Rat - % Remaining after 30 min w/NADPH [4] | EC50 ([5]; Homo sapiens, U-266, 48 h) | IC50 [6] | Liver Microsome Stability (Multiple Species): Monkey - % Remaining after 30 min w/NADPH [7] | IC50 [8] | IC50 [9] | IC50 [10] | EC50 ([3]; 48 hr) | EC50 ([5]; 48 hr) | IC50 ([6]; mean) | IC50 ([8]; mean) | IC50 ([9]; mean) | IC50 ([10]; mean) | 24 hr Dox Inducible TNFaFLGluc 293FRT/TO: TNF/PD1 [9] | 24 hr Dox Inducible IL2FLGluc 293FRT/TO: IL2/PD1 [10] | 24 hr Dox Inducible TNFaFLGluc 293FRT/TO: TNF/PD1 [9, 11] | 24 hr Dox Inducible IL2FLGluc 293FRT/TO: IL2/PD1 [10, 11] |
| --- | --- | --- | --- | --- | --- | --- | --- | --- | --- | --- | --- | --- | --- | --- | --- | --- | --- | --- | --- | --- |
| Cc1ocnc1/C=C/c1csc(NC(=O)c2cccn2Cc2ccnc(F)c2)n1 [Compound B47, (E)-1-((2-fluoropyridin-4-yl)methyl)-N-(4-(2-(5-methyloxazol-4-yl)vinyl)thiazol-2-yl)-1H-pyrrole-2-carboxamide] | 30.8% | 2.81% | > 25 µM | 0.41% | > 25 µM | 5.75 µM | 1.45% | 0.0415 µM | 18.8 µM | 14.5 µM |  |  |  |  |  |  | 454 | 350 |  |  |
| O=C(Nc1nc(/C=C/c2cnccn2)cs1)c1cccn1Cc1ccncc1 [Compound B43, (E)-N-(4-(2-(pyrazin-2-yl)vinyl)thiazol-2-yl)-1-(pyridin-4-ylmethyl)-1H-pyrrole-2-carboxamide] | 1.19% | 1.83% | > 25 µM | 1.88% | > 25 µM | > 25 µM | 0.92% | 0.264 µM | > 25 µM | > 25 µM |  |  |  |  |  |  | >94.5 | >95 |  |  |
| O=C(Nc1nc([C@H]2CCCN2c2ccccc2)cs1)c1cccn1CCCc1cccnc1 [Compound E10, (R)-N-(4-(1-phenylpyrrolidin-2-yl)thiazol-2-yl)-1-(3-(pyridin-3-yl)propyl)-1H-pyrrole-2-carboxamide] | 0.46% | 0.37% | > 25 µM | 0.39% | > 25 µM |  | 0.06% |  |  |  |  |  | 4.93 µM | 5.76 µM | > 25 µM | 5.41 µM |  |  | >4.34 | 0.94 |

Continued by falling EC50 ([3]; Homo sapiens, NCI-H929, 48 h), values first:

| Liver Microsome Stability (Multiple Species): Mouse - % Remaining after 30 min w/NADPH [1] | Liver Microsome Stability (Multiple Species): Human - % Remaining after 30 min w/NADPH [2] | EC50 ([3]; Homo sapiens, NCI-H929, 48 h) | Liver Microsome Stability (Multiple Species): Rat - % Remaining after 30 min w/NADPH [4] | EC50 ([5]; Homo sapiens, U-266, 48 h) | IC50 [6] | Liver Microsome Stability (Multiple Species): Monkey - % Remaining after 30 min w/NADPH [7] | IC50 [8] | IC50 [9] | IC50 [10] | EC50 ([3]; 48 hr) | EC50 ([5]; 48 hr) | IC50 ([6]; mean) | IC50 ([8]; mean) | IC50 ([9]; mean) | IC50 ([10]; mean) | Structure (SMILES) | 24 hr Dox Inducible TNFaFLGluc 293FRT/TO: TNF/PD1 [9] | 24 hr Dox Inducible IL2FLGluc 293FRT/TO: IL2/PD1 [10] | 24 hr Dox Inducible TNFaFLGluc 293FRT/TO: TNF/PD1 [9, 11] | 24 hr Dox Inducible IL2FLGluc 293FRT/TO: IL2/PD1 [10, 11] |
| --- | --- | --- | --- | --- | --- | --- | --- | --- | --- | --- | --- | --- | --- | --- | --- | --- | --- | --- | --- | --- |
| 29.5% | 22.6% | 24.3 µM | 38.8% | > 25 µM |  | 9.66% |  |  |  |  |  | 13.9 µM | 5.21 µM | > 25 µM | 7.09 µM | O=C(Nc1nc([C@H]2CCCN2c2ccccc2)cs1)c1cccn1Cc1ccc(=O)[nH]c1 [Compound C10] |  |  | >4.80 | 1.4 |
| 54.5% | 2.45% | 6.29 µM | 22.8% | 5.52 µM | 1.57 µM | 5.11% | 0.917 µM | 11.6 µM | 3.22 µM |  |  |  |  |  |  | O=C(Nc1nc([C@H]2CCCN2c2ccc(C3CCCNC3)cc2)cs1)c1cccn1Cc1ccncc1 (stereo partly drawn) [Compound A61, N-(4-((2R)-1-(4-(piperidin-3-yl)phenyl)pyrrolidin-2-yl)thiazol-2-yl)-1-(pyridin-4-ylmethyl)-1H-pyrrole-2-carboxamide] | 12.7 | 3.5 |  |  |
| 57.7% and 62.5% | 52.8% and 65.2% | 6.26 µM | 90.7% and 99.6% | 10.3 µM | 0.566 µM and 0.543 µM | 49% and 62.5% | 0.285 µM and 0.294 µM | 21.6 µM and > 25 µM | 2.11 µM and 1.47 µM | 5.29 µM | 7.38 µM |  |  |  |  | O=C(Nc1nc([C@H]2CCCN2c2ccc(OC3CNC3)cc2)cs1)c1cccn1Cc1ccnc(F)c1 [Compound A85, (R)-N-(4-(1-(4-(azetidin-3-yloxy)phenyl)pyrrolidin-2-yl)thiazol-2-yl)-1-((2-fluoropyridin-4-yl)methyl)-1H-pyrrole-2-carboxamide] | 75.9 and > 85.1 | 7.4 and 5 |  |  |
| 36% | 9.01% | 1.62 µM | 19.7% | > 25 µM | 0.0358 µM | 3.91% | 0.0279 µM | 0.79 µM | 0.0806 µM |  |  |  |  |  |  | NC(=O)N1CCC(Oc2ccc(N3CCC[C@@H]3c3csc(NC(=O)c4cccn4Cc4ccnc(F)c4)n3)cn2)CC1 [Compound A159, (R)-4-((5-(2-(2-(1-((2-fluoropyridin-4-yl)methyl)-1H-pyrrole-2-carboxamido)thiazol-4-yl)pyrrolidin-1-yl)pyridin-2-yl)oxy)piperidine-1-carboxamide] | 28.3 | 2.9 |  |  |
